Assay results from patent US20080280989A1, “Hydroxybenzamide Derivatives, the Method For Preparing Thereof and the Cosmetic Composition Containing the Same” (priority 2005, published 2008).
Read-outs that look alike come from different tables or passages of the source.

How the values were obtained:
[1] = Thermal stability according to isothermal discoloration test; type: physicochemical; set-up: key: 1: no discoloration; 2: discoloration into a light yellow color; 3: discoloration into a dark yellow color; 4: discoloration into a dark brown color; conditions: 1000 pm in dimethylformaldehyde:ethanol:water=5:3:2, 40° C., naked eyes
Procedure: The hydroxybenzamide compounds according to Examples 18 were determined for their thermal stability as compared to resveratrol.
The test was performed by dissolving each of the hydroxybenzamide compounds according to Examples 1˜8 into a test solvent (dimethylformaldehyde:ethanol:water=5:3:2) in a concentration of 1000 pm, and by allowing the test samples to be left in an isothermal chamber at 40° C. for a test period of 30, 60 and 90 days. Then, the test samples were observed by the naked eyes to determine discoloration degrees.
Discoloration of the samples was graded into Grade 1 Grade 4 as follows:
2: discoloration into a light yellow color
3: discoloration into a dark yellow color
4: discoloration into a dark brown color

procollagen type(I) = assay: Stimulation of collagen biosynthesis (procollagen type(I) ELISA); type: cell-based; conditions: Fibroblasts, 10 μM in serum-free medium, 24 hours, non-treated group taken as 100; for activity at 10 µM: Fibroblast
Procedure: The hydroxybenzamide compounds according to Examples 18 were determined for their effects of stimulating collagen biosynthesis, and the results were compared to the effects obtained from resveratrol and tocopherol.
Fibroblasts were seeded into a 24-well microtiter plate in a cell count of 10^5 cells per well and cultured to a growth level of 90%. The cultured product was further cultured in a serum-free DMEM medium for 24 hours. Next, the cultured product was treated with the hydroxybenzamide compounds according to Examples 1˜8, resveratrol and tocopherol, dissolved in a serum-free medium at a concentration of 10 μM, and then was cultured in a CO2 incubator for 24 hours. After decanting the supernatant, procollagen was determined by using a procollagen type(I) ELISA kit. The results are shown in the following Table 2, wherein the biosynthesis activity is expressed based on the biosynthesis activity of non-treated group, taken as 100.

collagenase = assay: Effect of inhibiting collagenase expression; type: cell-based; conditions: Human fibroblasts, 10˜4M in serum-free DMEM, non-treated group taken as 100; for activity at 100 µM: Fibroblast
Procedure: The hydroxybenzamide compounds according to Examples 1˜8 were determined for their effects of inhibiting collagenase expression, and the results were compared to the effects obtained from resveratrol and tocopherol.
Human fibroblasts were introduced into a 96-well microtiter plate containing a DMEM (Dulbecco's Modified Eagle's Media) with 2.5% fetal bovine serum (FBS) in a cell count of 5,000 cells per well and cultured to a growth level of 90%. Then, the cultured product was further cultured in a serum-free DMEM medium for 24 hours. Next, the cultured product was treated with the hydroxybenzamide compounds according to Examples 18, resveratrol and tocopherol, dissolved in a serum-free DMEM medium at a concentration of 10˜4M, and then the cell culture was collected. The cell culture was evaluated for the production of collagenase by using a commercially available collagenase measuring system (Amersham Pharmacia, USA). First, the cell culture was introduced into a 96-well plate coated uniformly with primary collagenase antibodies, and then an antigen-antibody reaction was carried out in an incubator for 3 hours. After 3 hours, secondary collagenase antibodies, to which chromophores were bound, were introduced into the 96-well plate, and the reaction was further carried out for 15 minutes. After 15 minutes, a color developer was added thereto to develop a color at room temperature for 15 minutes, and 1M sulfuric acid was further added thereto to quench the reaction (color development). […] The yellow-colored 96-well plate was measured for absorptivity at 405 nm by using an absorption spectrometer, and a degree of collagenase synthesis was calculated according to the following Mathematical Formula 1. At this time, absorptivity of the cell culture in a non-treated group was used as a control.
Collagenase expression (%)=Absorptivity of the group treated with the corresponding sample/Absorptivity of the control×100 [Mathematical Formula 1]
The collagenase expression inhibiting activity was expressed based on the collagenase synthesis activity of the non-treated group, taken as 100.

[2] = system: Human keratinocyte HaCaT cell lines; assay: Anti-oxidative effect using HaCaT model (lipid peroxidation assay kit); type: cell-based; conditions: for activity at 100 µM: Homo sapiens, read-out: Lipid peroxidation (%)
Procedure: The hydroxybenzamide compounds prepared in Examples 1-8 were determined for their anti-oxidative effects.
Human keratinocyte HaCaT cell lines were pipetted into 60 mm dishes in a cell count of 1.0×10^6 cells per dish, and were cultured by using a DMEM (FBS 10%) medium containing penicillin/streptomycin added thereto under the conditions of 37° C./5% CO2 for 1 day. Then, the cultured product was treated with each of the hydroxybenzamide compounds according to Examples 1˜8 in a concentration of 10˜4 mol. Also, the same cultured product was treated with the same concentration of tocopherol and resveratrol for 24 hours. In addition to the above, the cultured product was treated with t-BHT (t-butyl hydroperoxide) and cultured under the conditions of 37° C./5% CO2 for 4 hours to obtain cells. The cells were subjected to lysis by repeating freezing/thawing cycles. The following Test procedure was based on the method described in the assay kit used in this example.
In this example, Calbiochem Lipid peroxidation assay kit (Cat. No. 437634) was used as a test reagent, and lipid peroxidation was determined by using the mechanism of formation of stable compounds at 586 nm from the reaction between the above reagent and ester peroxides linked to long-chain unsaturated fatty acids, such as malondialdehyde (MDA) and 4-hydroxyalkenal (4-hydroxy-2(E)-nonenal, 4-HNE).

[3] = HaCaT cells, sample at 10˜4 mol for 24 hours, then t-BHT 4 hours, non-treated group = 100

Row | Molecule | Discoloration after 30 days [1] | Discoloration after 60 days [1] | Discoloration After 90 days [1] | activity at 10 µM (procollagen type(I)) [%] | activity at 100 µM (collagenase) [%] | activity at 100 µM [2, 3] [%] | activity at 100 µM ([2]; HaCaT, 24 h) [%] | Collagen biosynthesis activity (%) (procollagen type(I)) | Collagenase expression (%) (collagenase) | Lipid peroxidation (%) [2, 3] [%]
1 | O=C(Nc1ccc(O)cc1)c1cc(O)cc(O)c1 [Ex. 1, 3,5-dihydroxy-N-(4-hydroxyphenyl)benzamide] | 1 | 1 | 1 | 143 | 67 | 170 |  |  |  | 
2 | O=C(Nc1ccccc1O)c1cc(O)cc(O)c1 [Ex. 2, 3,5-dihydroxy-N-(2-hydroxyphenyl)benzamide] | 1 | 1 | 1 | 121 | 69 | 180 |  |  |  | 
3 | O=C(Nc1cccc(O)c1)c1cc(O)cc(O)c1 [Ex. 3, 3,5-dihydroxy-N-(3-hydroxyphenyl)benzamide] | 1 | 1 | 1 | 122 | 71 | 182 |  |  |  | 
4 | COc1ccc(NC(=O)c2cc(O)cc(O)c2)cc1 [Ex. 4, 3,5-dihydroxy-N-(4-methoxyphenyl)benzamide] | 1 | 1 | 1 | 118 | 74 | 186 |  |  |  | 
5 | COc1ccc(NC(=O)c2cc(O)cc(O)c2)cc1OC [Ex. 5, 3,5-dihydroxy-N-(3,4-dimethoxyphenyl)benzamide] | 1 | 1 | 1 | 115 | 72 | 176 |  |  |  | 
6 | COc1cc(NC(=O)c2cc(O)cc(O)c2)cc(OC)c1 [Ex. 6, 3,5-dihydroxy-N-(3,5-dimethoxyphenyl)benzamide] | 1 | 1 | 1 | 116 | 71 | 172 |  |  |  | 
7 | COc1cc(NC(=O)c2cc(O)cc(O)c2)cc(OC)c1OC [Ex. 7, 3,5-dihydroxy-N-(3,4,5-trimethoxyphenyl)benzamide] | 1 | 1 | 1 | 119 | 70 | 179 |  |  |  | 
8 | COc1ccc(NC(=O)c2cc(O)cc(O)c2)cc1O [Ex. 8, 3,5-dihydroxy-N-(3-hydroxy-4-methoxyphenyl)benzamide] | 1 | 1 | 1 | 120 | 69 | 181 |  |  |  | 
9 | Oc1ccc(C=Cc2cc(O)cc(O)c2)cc1 [Resveratrol, reference compound] | 2 | 3 | 4 | 111 | 81 | 178 |  |  |  | 
10 | CC(C)(C)OO [t-BHT, t-butyl hydroperoxide, reference compound] |  |  |  |  |  |  | 320 |  |  | 
11 | Tocopherol [reference compound] |  |  |  |  |  |  |  | 113 | 95 | 250
